Data published in paper PMC3792221 (Biomolecules & Therapeutics, 2012).

Legend:
[1] = biological target: T1, MAO-A (rat brain mitochondrial MAO) (Rattus norvegicus, UniProt P21396); test: MAO-A inhibition assay in vitro; type: biochemical
T1 sequence (P21396 1-526): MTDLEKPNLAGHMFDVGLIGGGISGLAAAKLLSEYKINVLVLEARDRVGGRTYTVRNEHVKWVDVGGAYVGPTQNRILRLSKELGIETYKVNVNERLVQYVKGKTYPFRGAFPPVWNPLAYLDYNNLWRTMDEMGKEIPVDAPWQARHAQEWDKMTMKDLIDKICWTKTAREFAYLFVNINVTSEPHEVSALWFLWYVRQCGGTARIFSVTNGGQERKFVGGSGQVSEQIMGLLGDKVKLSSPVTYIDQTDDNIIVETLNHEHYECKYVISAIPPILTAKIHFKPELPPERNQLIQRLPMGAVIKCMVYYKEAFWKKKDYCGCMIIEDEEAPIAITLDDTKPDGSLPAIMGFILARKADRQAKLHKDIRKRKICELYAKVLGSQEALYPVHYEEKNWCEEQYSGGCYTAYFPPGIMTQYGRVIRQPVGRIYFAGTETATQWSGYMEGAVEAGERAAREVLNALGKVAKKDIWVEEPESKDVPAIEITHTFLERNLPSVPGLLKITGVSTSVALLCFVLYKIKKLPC

[2] = test system: neural stem cells; settings: ref Guan et al., 2009; cited from earlier work
[3] = biological target: T2, bovine adrenal DBH (Bos taurus, UniProt P15101); test: DBH inhibition assay in vitro; type: biochemical
T2 sequence (P15101 1-610): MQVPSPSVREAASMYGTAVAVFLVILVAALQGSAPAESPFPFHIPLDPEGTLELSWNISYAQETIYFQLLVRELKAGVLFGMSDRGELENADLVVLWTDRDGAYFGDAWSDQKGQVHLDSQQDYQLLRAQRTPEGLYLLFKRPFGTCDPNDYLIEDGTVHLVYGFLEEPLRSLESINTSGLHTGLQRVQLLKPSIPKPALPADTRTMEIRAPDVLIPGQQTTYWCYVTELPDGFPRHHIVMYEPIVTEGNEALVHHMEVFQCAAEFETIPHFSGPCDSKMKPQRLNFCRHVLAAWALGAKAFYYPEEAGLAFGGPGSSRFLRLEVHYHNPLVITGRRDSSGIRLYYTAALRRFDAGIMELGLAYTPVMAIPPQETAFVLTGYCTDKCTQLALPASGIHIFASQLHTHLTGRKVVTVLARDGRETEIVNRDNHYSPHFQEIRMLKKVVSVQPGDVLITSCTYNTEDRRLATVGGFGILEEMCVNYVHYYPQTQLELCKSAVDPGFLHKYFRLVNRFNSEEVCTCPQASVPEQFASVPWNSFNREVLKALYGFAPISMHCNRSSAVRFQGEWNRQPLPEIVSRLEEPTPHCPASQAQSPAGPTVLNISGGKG

[4] = biological target: T3, MAO-B (rat liver mitochondrial MAO) (Rattus norvegicus, UniProt P19643); test: MAO-B inhibition assay in vitro; type: biochemical
T3 sequence (P19643 1-520): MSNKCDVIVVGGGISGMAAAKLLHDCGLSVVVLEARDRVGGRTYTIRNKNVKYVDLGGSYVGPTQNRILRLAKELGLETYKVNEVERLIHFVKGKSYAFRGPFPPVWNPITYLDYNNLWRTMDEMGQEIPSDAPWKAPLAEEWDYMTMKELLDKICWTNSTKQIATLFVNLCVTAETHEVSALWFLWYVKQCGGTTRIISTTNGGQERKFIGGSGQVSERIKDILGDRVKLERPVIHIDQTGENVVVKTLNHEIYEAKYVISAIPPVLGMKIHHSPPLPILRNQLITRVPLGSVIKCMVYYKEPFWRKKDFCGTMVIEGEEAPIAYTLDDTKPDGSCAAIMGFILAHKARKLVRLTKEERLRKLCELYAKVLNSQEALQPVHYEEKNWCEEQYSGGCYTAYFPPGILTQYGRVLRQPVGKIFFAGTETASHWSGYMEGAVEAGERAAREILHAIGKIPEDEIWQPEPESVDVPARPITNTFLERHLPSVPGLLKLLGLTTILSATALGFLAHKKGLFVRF

[5] = isolated geniposide; ref Hou et al., 2008; Lu et al., 2011; cited from earlier work
[6] = IC50 value MAO-A, Table 1, 1 mM serotonin substrate
[7] = read-out: MAO-A inhibitory activity
[8] = IC50 value DBH, Table 1, 120 mM tyramine substrate
[9] = read-out: DBH inhibitory activity
[10] = read-out: MAO-B inhibitory activity

SMILES	IC50 [1, 6]	IC50 [3, 8]	inhibition at 50 µg/mL [3, 9]	inhibition at 100 µg/mL [3, 9]	IC50 [4]	inhibition at 50 µg/mL [4, 10]	inhibition at 100 µg/mL [4, 10]	further results
O=C(O)c1ccc(O)c(O)c1 [Compound 1, protocatechuic acid]	2410 µM	334 µM	49.2 ± 3.1%	64.1 ± 6.8%	300 µM	50.4 ± 5.9%	71.6 ± 9.3%	IC50 ([1]; IC50 MAO-A (abstract)): 2410 µM; inhibition at 50 µg/mL [1, 7]: 7.3 ± 2.6%; inhibition at 100 µg/mL [1, 7]: 12.8 ± 4.8%; inhibition at 500 µg/mL [1, 7]: 67.4 ± 5.2%; Apoptosis of neural stem cells [2]: inhibit apoptosis; Proliferation of neural stem cells [2]: increase proliferation; inhibition at 500 µg/mL [3, 9]: 97.2 ± 2%; Specific activity on MAO-B relative to that on MAO-A ([4]; from Table 1): about 8 times; inhibition at 500 µg/mL [4, 10]: 108 ± 1.3%
COC(=O)C1=CO[C@@H](O[C@@H]2O[C@H](CO)[C@@H](O)[C@H](O)[C@H]2O)[C@@H]2C(CO)=CC[C@H]12 [Compound 2, geniposide]	> 12900 µM	> 12900 µM	–	–	223 µM	42.8 ± 2.2%	52.2 ± 1.5%	Absorption percentage [5]: very low; inhibition at 4 µg/mL [4, 10]: 9.2 ± 1.2%; inhibition at 20 µg/mL [4, 10]: 16 ± 0.6%
C[C@H]1[C@H](C)CC[C@]2(C(=O)O)CC[C@]3(C)C(=CC[C@@H]4[C@@]5(C)CC[C@H](O)C(C)(C)[C@@H]5CC[C@]43C)[C@H]12 [Compound 5, ursolic acid]	> 11000 µM	214 µM	33.2 ± 6.9%	51.2 ± 5.9%	780 µM	17.1 ± 1.1%	28.7 ± 8%	MAO-A inhibition (in words) [1]: no inhibition; IC50 ([3]; IC50 DBH): 215 µM; inhibition at 2 µg/mL [3, 9]: 18.2 ± 7.6%; inhibition at 10 µg/mL [3, 9]: 20.8 ± 10.7%
